The record followed here is US10287269B2, “Pyrazolyl pyrimidinone compounds as PDE2 inhibitors” (Merck Sharp & Dohme Corp., priority 2015, dated 2019).

Structures are written as SMILES. Bounds are passed on as bounds.

For this test, the target named is T1, human PDE2A1 (Homo sapiens, UniProt O00408).
T1 construct: GST; purchased BPS Bioscience (San Diego, Calif.) 60020; host or cells: insect cells
T1 sequence (O00408 1-920 isoform O00408-2): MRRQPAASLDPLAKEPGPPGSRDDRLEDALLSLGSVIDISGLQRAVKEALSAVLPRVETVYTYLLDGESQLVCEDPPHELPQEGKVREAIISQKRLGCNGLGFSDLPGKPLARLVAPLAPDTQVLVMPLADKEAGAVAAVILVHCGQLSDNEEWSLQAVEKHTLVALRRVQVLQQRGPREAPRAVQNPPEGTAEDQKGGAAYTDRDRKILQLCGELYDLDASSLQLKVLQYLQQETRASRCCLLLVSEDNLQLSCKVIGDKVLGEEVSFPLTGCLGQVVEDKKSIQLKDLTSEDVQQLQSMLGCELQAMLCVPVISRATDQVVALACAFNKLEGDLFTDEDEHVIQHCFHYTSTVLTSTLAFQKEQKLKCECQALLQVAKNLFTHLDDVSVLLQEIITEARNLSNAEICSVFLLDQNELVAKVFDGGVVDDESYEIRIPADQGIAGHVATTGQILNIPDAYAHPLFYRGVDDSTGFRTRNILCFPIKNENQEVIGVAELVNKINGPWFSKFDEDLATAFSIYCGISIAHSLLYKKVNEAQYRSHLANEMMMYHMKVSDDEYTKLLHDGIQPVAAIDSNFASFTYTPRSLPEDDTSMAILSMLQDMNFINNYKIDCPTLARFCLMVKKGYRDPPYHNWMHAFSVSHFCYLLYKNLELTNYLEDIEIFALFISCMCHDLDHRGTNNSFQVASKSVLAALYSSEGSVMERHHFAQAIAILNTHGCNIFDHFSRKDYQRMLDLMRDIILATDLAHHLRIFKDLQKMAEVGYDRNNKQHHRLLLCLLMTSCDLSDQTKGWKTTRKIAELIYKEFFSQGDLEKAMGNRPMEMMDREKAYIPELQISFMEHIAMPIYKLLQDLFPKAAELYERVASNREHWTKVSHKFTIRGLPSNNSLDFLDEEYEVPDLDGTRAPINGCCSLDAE
The test can be described thus: PDE2 IMAP FP inhibition assay, human enzyme (PDE selectivity panel format). Type of test: biochemical. As to conditions: Lab A; read-out: Human PDE2 Ki (nM) Lab A. As to the method:
Selectivity for PDE2, as compared to other PDE families, was assessed using the IMAP® technology. Human PDE10A2 enzyme was prepared from cytosolic fractions of transiently transfected HEK cells. All other PDE's were GST Tag human enzyme expressed in insect cells and were obtained from BPS Bioscience (San Diego, Calif.): PDE1A (Cat#60010), human PDE2A1 (Cat#60020), PDE3A (Cat#60030), PDE4A1A (Cat#60040), PDE5A1 (Cat#60050), PDE6C (Cat#60060), PDE7A (Cat#60070), PDE8A1 (Cat#60080), PDE9A2 (Cat#60090), PDE11A4 (Cat#60110).
Assays for PDE 1 through 11 were performed in parallel at room temperature in 384-well microtiter plates with an incubation volume of 20.2 μL. Solutions of test compounds were prepared in DMSO and serially diluted with DMSO to yield 30 μL of each of ten solutions differing by 3-fold in concentration, at 32 serial dilutions per plate. […] A Labcyte POD 810 (Labcyte, Sunnyvale, Calif.) was used to dispense 200 nL from each well of the titration plate to make eleven copies of the assay plate for each titration, one copy for each PDE enzyme. A solution of each enzyme (dilution from aliquots, sufficient to produce 20% substrate conversion) and a separate solution of FAM-labeled cAMP or FAM-labeled cGMP from Molecular Devices (Sunnyvale, Calif., product # R7506 or cGMP#R7508), at a final concentration of 50 nM were made in the assay buffer (10 mM Tris HCl, pH 7.2, 10 mM MgCl2, 0.05% NaN3 0.01% Tween-20, and 1 mM DTT). Note that the substrate for PDE2 is 50 nM FAM cAMP containing 1000 nM of cGMP. The enzyme and the substrate were then added to the assay plates in two consecutive additions of 10 μL and then shaken to mix. The reaction was allowed to proceed at room temperature for 60 minutes. A binding solution was then made from the kit components, comprised of 80% Solution A, 20% Solution B and binding reagent at a volume of 1/600 the total binding solution. The enzymatic reaction was stopped by addition of 60 μL of the binding solution to each well of the assay plate. The plates were sealed and shaken for 10 seconds. The plates were incubated at room temperature for one hour, then the parallel and perpendicular fluorescence was measured using a Tecan Genios Pro plate reader (Tecan, Switzerland). The apparent inhibition constants for the compounds against all 11 PDE's was determined from the parallel and perpendicular fluorescent readings as described for PDE10 FP assay using the following apparent KM values for each enzyme and substrate combination: PDE1A (FAM cGMP) 70 nM, human PDE2A1 (FAM cAMP) 10,000 nM, PDE3A (FAM cAMP) 50 nM, PDE4A1A (FAM cAMP) 1500 nM, PDE5A1 (FAM cGMP) 400 nM, PDE6C (FAM cGMP) 700 nM, PDE7A (FAM cAMP) 150 nM, PDE8A1 (FAM cAMP) 50 nM, PDE9A2 (FAM cGMP) 60 nM, PDE10A2 (FAM cAMP) 150 nM, PDE11A4 (FAM cAMP) 1000 nM. The intrinsic PDE2 inhibitory activity of a compound which may be used in accordance with the present invention may be determined by these assays. […]
Regarding `Cc1nc(-c2cnn([C@H](C)c3c(F)cc(C(F)(F)F)cc3F)c2)cc(=O)[nH]1` (single isomer, unassigned) [Example 7], the inhibition constant (Ki) amounted to 126 nM.
Consider `Cc1nc(-c2cnn([C@H](C)c3c(F)cc(C(F)(F)F)cc3F)c2)cc(=O)[nH]1` (single isomer, unassigned) [Example 8], for which the inhibition constant (Ki) worked out at 107 nM.
The figure for `CCc1ccc([C@](C)(O)c2cnn(-c3cc(=O)[nH]c(C)n3)c2)c(F)c1` (single isomer, unassigned) [Example 11] is 42.5 nM; for `CCc1ccc([C@](C)(O)c2cnn(-c3cc(=O)[nH]c(C)n3)c2)c(F)c1` (single isomer, unassigned) [Example 12] it is 244 nM; for `CCCc1ccc([C@](C)(O)c2cnn(-c3cc(=O)[nH]c(C)n3)c2)c(F)c1` (single isomer, unassigned) [Example 13] it is 287 nM.
The figure for `CCCc1ccc([C@](C)(O)c2cnn(-c3cc(=O)[nH]c(C)n3)c2)c(F)c1` (single isomer, unassigned) [Example 14] is 1400 nM; for `CCc1ccc([C@@H](CO)n2cc(-c3cc(=O)[nH]c(C)n3)cn2)c(Cl)c1` (single isomer, unassigned) [Example 17] it is 683 nM.
The result for `CCc1ccc([C@@H](CO)n2cc(-c3cc(=O)[nH]c(C)n3)cn2)c(Cl)c1` (single isomer, unassigned) [Example 18] reads 10.7 nM.
On to `Cc1nc(-c2cn(C(C)c3ccc(C(F)(F)F)cc3F)nc2C)cc(=O)[nH]1` (single isomer, unassigned) [Example 69, (R)- or (S)-(6-(1-(1-(2-fluoro-4-(trifluoromethyl)phenyl)ethyl)-3-methyl-1H-pyrazol-4-yl)-2-methylpyrimidin-4(3H)-one], for which the Ki turned out to be 32.6 nM.
As for `Cc1nc(-c2cn(C(C)c3ccc(C(F)(F)F)cc3F)nc2C)cc(=O)[nH]1` (single isomer, unassigned) [Example 70, (S)- or (R)-(6-(1-(1-(2-fluoro-4-(trifluoromethyl)phenyl)ethyl)-3-methyl-1H-pyrazol-4-yl)-2-methylpyrimidin-4(3H)-one], the inhibition constant Ki amounted to 312 nM.
Take `Cc1nc(-c2cnn(C(C)c3ccc(C(F)(F)F)cc3F)c2C)cc(=O)[nH]1` (single isomer, unassigned) [Example 71, (R)- or (S)-6-(1-(1-(2-fluoro-4-(trifluoromethyl)phenyl)ethyl)-5-methyl-1H-pyrazol-4-yl)-2-methylpyrimidin-4(3H)-one]: the Ki amounted to 16.5 nM.
The figure for `Cc1nc(-c2cnn(C(C)c3ccc(C(F)(F)F)cc3F)c2C)cc(=O)[nH]1` (single isomer, unassigned) [Example 72, (S)- or (R)-6-(1-(1-(2-fluoro-4-(trifluoromethyl)phenyl)ethyl)-5-methyl-1H-pyrazol-4-yl)-2-methylpyrimidin-4(3H)-one] is 412 nM; for `Cc1nc(-c2cnn(C(C)c3ccc(CC(F)(F)F)cc3C)c2)cc(=O)[nH]1` (single isomer, unassigned) [Example 105, (R)- or (S)-2-methyl-6-(1-(1-(2-methyl-4-(2,2,2-trifluoroethyl)phenyl)ethyl)-1H-pyrazol-4-yl)pyrimidin-4(3H)-one] it is more than 2960 nM.
The result for `Cc1nc(-c2cnn(C(C)c3ccc(CC(F)(F)F)cc3C)c2)cc(=O)[nH]1` (single isomer, unassigned) [Example 106, (S)- or (R)-2-methyl-6-(1-(1-(2-methyl-4-(2,2,2-trifluoroethyl)phenyl)ethyl)-1H-pyrazol-4-yl)pyrimidin-4(3H)-one] reads 710 nM; that for `Cc1nc(-c2cnn(C(C)c3ccc(C4CC4)cc3Cl)c2)cc(=O)[nH]1` (single isomer, unassigned) [Example 107, (R)- or (S)-6-(1-(1-(2-chloro-4-cyclopropylphenyl)ethyl)-1H-pyrazol-4-yl)-2-methylpyrimidin-4(3H)-one], 9.4 nM.
The figure for `Cc1nc(-c2cnn(C(C)c3ccc(C4CC4)cc3Cl)c2)cc(=O)[nH]1` (single isomer, unassigned) [Example 108, (S)- or (R)-6-(1-(1-(2-chloro-4-cyclopropylphenyl)ethyl)-1H-pyrazol-4-yl)-2-methylpyrimidin-4(3H)-one] is 358 nM; for `Cc1nc(-c2cnn(C(CO)c3ccc(C(F)(F)F)cc3F)c2)cc(=O)[nH]1` (single isomer, unassigned) [Example 109, (R)- or (S)-6-(1-(1-(2-fluoro-4-(trifluoromethyl)phenyl)-2-hydroxyethyl)-1H-pyrazol-4-yl)-2-methylpyrimidin-4(3H)-one] it is 27.5 nM; for `Cc1nc(-c2cnn(C(CO)c3ccc(C(F)(F)F)cc3F)c2)cc(=O)[nH]1` (single isomer, unassigned) [Example 110, (S)- or (R)-6-(1-(1-(2-fluoro-4-(trifluoromethyl)phenyl)-2-hydroxyethyl)-1H-pyrazol-4-yl)-2-methylpyrimidin-4(3H)-one] it is 299 nM.
For `CCc1ccc(C(CO)n2cc(-c3cc(=O)[nH]c(C)n3)cn2)c(F)c1` (single isomer, unassigned) [Example 111, (R)- or (S)-6-(1-(1-(4-ethyl-2-fluorophenyl)-2-hydroxyethyl)-1H-pyrazol-4-yl)-2-methylpyrimidin-4(3H)-one], the inhibition constant (Ki) stood at 42.5 nM.
In the case of `CCc1ccc(C(CO)n2cc(-c3cc(=O)[nH]c(C)n3)cn2)c(F)c1` (single isomer, unassigned) [Example 112, (S)- or (R)-6-(1-(1-(4-ethyl-2-fluorophenyl)-2-hydroxyethyl)-1H-pyrazol-4-yl)-2-methylpyrimidin-4(3H)-one], the Ki is 438 nM.
The figure for `CCc1ccc(C(CO)c2cnn(-c3cc(=O)[nH]c(C)n3)c2)c(F)c1` (single isomer, unassigned) [Example 115, (R)- or (S)-6-(4-(1-(4-ethyl-2-fluorophenyl)-2-hydroxyethyl)-1H-pyrazol-1-yl)-2-methylpyrimidin-4(3H)-one] is 163 nM.
The figure for `CCc1ccc(C(CO)c2cnn(-c3cc(=O)[nH]c(C)n3)c2)c(F)c1` (single isomer, unassigned) [Example 116, (S)- or (R)-6-(4-(1-(4-ethyl-2-fluorophenyl)-2-hydroxyethyl)-1H-pyrazol-1-yl)-2-methylpyrimidin-4(3H)-one] is 537 nM; for `Cc1nc(-n2cc(C(C)(O)c3ccc(C(F)(F)F)cc3Cl)cn2)cc(=O)[nH]1` (single isomer, unassigned) [Example 117, (R)- or (S)-6-(4-(1-(2-chloro-4-(trifluoromethyl)phenyl)-1-hydroxyethyl)-1H-pyrazol-1-yl)-2-methylpyrimidin-4(3H)-one] it is 4.4 nM.
The figure for `Cc1nc(-n2cc(C(C)(O)c3ccc(C(F)(F)F)cc3Cl)cn2)cc(=O)[nH]1` (single isomer, unassigned) [Example 118, (S)- or (R)-6-(4-(1-(2-chloro-4-(trifluoromethyl)phenyl)-1-hydroxyethyl)-1H-pyrazol-1-yl)-2-methylpyrimidin-4(3H)-one] is 47.8 nM; for `CCc1ccc(C(CO)c2cnn(-c3cc(=O)[nH]c(C)n3)c2)c(Cl)c1` (single isomer, unassigned) [Example 120, (R)- or (S)-6-(4-(1-(2-chloro-4-ethylphenyl)-2-hydroxyethyl)-1H-pyrazol-1-yl)-2-methylpyrimidin-4(3H)-one] it is 321 nM.
